Test results from US20190185461A1, “B[…] B2-RECEPTOR AGONIST ACTIVITY AND M3-RECEPTOR ANTAGONIST ACTIVITY AND MEDICAL USE THEREOF” (Sichuan Haisco Pharmaceutical Co., Ltd., priority 2015, published 2019).

What was measured:
[1] = target: T1, human muscarine receptor M3 (hM3) (Homo sapiens, UniProt P20309); test: Inhibitory activity against human muscarine receptor M3 (aequorin luminescence, CHO cells, acetylcholine challenge); format: cell-based; details: IC50 for hM3 receptor, CHO cells stably expressing hM3 and apo-Aequorin; acetylcholine chloride 112.92 nM; luminescence over 20 seconds
T1 construct: host or cells: CHO cells
Description: CHO cells (PerkinElmer, ES-212-AF) that stably express human muscarine receptor M3 (hM3) and apo-Aequorin were cultured at 37° C., 5% CO2 in Ham's F12 media (Invitrogen 12500-062) containing 10% fetal bovine serum (FBS) (Gibico 10099-141), 400 μg/mL G418 (sigma G5013) and 250 μg/mL Zeocin (Invivogen ant-zn-5p), until a confluency of 90% to 100% was reached. Cells were separated by rinsing with PBS/5 mM EDTA, collected by centrifugation, re-suspended in phenol red-free Ham's F12 media (Invitrogen 12500-062) containing 0.1 BSA (BOVOGEN BSAS 100), and counted. The cell concentration was adjusted to 1×10^6 cells/ml. 15 ml of the cell suspension was added to a 50-ml centrifuge tube, to which Coelenterazine-h (Promega 52011) was added to a final concentration of 5 μM. The tube was wrapped with a tin foil to shade light, and incubated on a rotary shaker at 20° C. for 4 hours. The cells were diluted with a phenol red-free/0.1% BSA Ham's F12 medium to a final concentration of 5.0×10^5 cells/ml, placed on a rotary shaker in low speed rotation, and incubated at room temperature for at least 1 hour. The compounds of the Examples were formulated with DMSO into 10 mM stock solutions, diluted in series with a phenol red-free/0.1% BSA Ham's F12 media (log(M): −7, −8, −9, −10, −11), and added to a 96-well plate at 50 μl/well. 50 μl cell suspension was further added to each well (25,000 cells/well) and incubated for 15 min at room temperature. The 96-well plate was placed in a microplate reader (Perkin Elmer, Envision), and a 50 μl solution of acetylcholine chloride (Sigma A6625) was added to each well at a concentration of 112.92 nM (hM3) with a microplate reader sample injector. The luminescence was recorded over 20 seconds, and IC50 values were calculated and analyzed by Origin 7.5.

[2] = target: T2, human β2-adrenergic receptor (hβ2) (Homo sapiens, UniProt P07550); test: Agonist activity on human β2-adrenergic receptor (LANCE Ultra cAMP Assay, CHO cells); format: cell-based
T2 construct: host or cells: CHO cells
Description: The agonist activity of the compounds of the Examples on the human adrenergic receptor was measured by the LANCE Ultra cAMP Assay.
CHO cells (PerkinElmer, ES-034-AF) that stably express human adrenergic receptor (hβ2) were cultured at 37° C., 5% CO2 in MEM-alpha media (Invitrogen 12561-056) containing 10% fetal bovine serum (FBS) (Gibico 10099-141) and 250 μg/ml Zeocin (InvivoGen ant-zn-5p), until a confluency of 90% to 100% was reached. Then the agonism on cAMP was tested by using a LANCE Ultra cAMP Assay kit (PerkinElmer TRF0263). Cells were separated with PBS/5 mM EDTA, collected by centrifugation, re-suspended in Stimulation Buffer (1×HBSS, 5 mM HEPES, 0.5 mM IBMX, 0.1% BSA, pH7.4), and adjusted to a cell concentration of 6×10^5 cells/ml. The compounds of the Examples were formulated with DMSO into 10 mM stock solutions, diluted in series with Stimulation Buffer, and added to a 384-well plate at 5 μl/well. 5 μl cell suspension was further added to each well (3,000 cells/well), incubated for 30 min at room temperature, then 5 μl of a 4×Eu-cAMP trace working solution was added to each well, and then 5 μl of a 4× Ulight-anti-cAMP working solution was added to each well, followed by incubation at room temperature for 1 hour. The 384-well plate was detected for TR-FRET with a microplate reader (Perkin Elmer, Envision), and EC50 values were calculated and analyzed by Origin 7.5.

T2 sequence (P07550 whole entry): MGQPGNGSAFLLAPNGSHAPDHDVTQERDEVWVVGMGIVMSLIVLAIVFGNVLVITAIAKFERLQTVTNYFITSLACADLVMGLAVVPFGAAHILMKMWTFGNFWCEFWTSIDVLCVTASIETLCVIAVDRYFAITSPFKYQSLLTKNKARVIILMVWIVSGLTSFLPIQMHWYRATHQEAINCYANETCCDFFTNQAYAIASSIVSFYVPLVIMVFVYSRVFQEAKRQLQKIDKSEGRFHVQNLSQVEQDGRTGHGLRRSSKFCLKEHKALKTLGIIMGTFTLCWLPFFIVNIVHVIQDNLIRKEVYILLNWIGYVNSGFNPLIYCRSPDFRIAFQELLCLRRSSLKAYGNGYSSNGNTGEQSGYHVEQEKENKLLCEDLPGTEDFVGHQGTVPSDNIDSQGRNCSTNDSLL
T1 sequence (P20309 whole entry): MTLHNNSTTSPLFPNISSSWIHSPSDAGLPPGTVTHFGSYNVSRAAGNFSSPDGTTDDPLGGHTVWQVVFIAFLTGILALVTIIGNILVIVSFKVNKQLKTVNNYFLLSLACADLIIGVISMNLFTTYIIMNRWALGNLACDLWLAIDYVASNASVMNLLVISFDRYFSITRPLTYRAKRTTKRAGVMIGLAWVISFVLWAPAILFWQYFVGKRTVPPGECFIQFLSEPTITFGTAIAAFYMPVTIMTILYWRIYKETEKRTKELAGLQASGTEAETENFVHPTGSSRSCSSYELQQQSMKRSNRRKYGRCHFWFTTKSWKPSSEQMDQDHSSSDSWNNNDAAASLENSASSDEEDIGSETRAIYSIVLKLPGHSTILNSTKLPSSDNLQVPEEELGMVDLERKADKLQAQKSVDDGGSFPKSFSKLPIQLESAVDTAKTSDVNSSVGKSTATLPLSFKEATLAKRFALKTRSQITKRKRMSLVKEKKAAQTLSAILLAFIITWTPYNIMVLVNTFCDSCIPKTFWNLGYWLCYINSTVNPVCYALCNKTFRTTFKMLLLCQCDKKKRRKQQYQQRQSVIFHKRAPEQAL

Structure (SMILES)	IC50 [1] [nM]	EC50 [2] [nM]
O=C(OC1CC2(CCN(CCCn3c(=O)oc4cc(CNC[C@H](O)c5ccc(O)c6[nH]c(=O)ccc56)ccc43)CC2)C1)C(O)(c1cccs1)c1cccs1 [Compound 8, [7-[3-[6-[[[(2R)-2-hydroxy-2-(8-hydroxy-2-oxo-1H-quinolin-5-yl)ethyl]amino]methyl]-2-oxo-1,3-benzoxazol-3-yl]propyl]-7-azaspiro[3.5]nonan-2-yl] 2-hydroxy-2,2-bis(2-thienyl)acetate; ditrifluoroacetic acid]	0.65	6.13
O=C(OC1CC2(CCN(CCCn3nnc4cc(CNC[C@H](O)c5ccc(O)c6[nH]c(=O)ccc56)ccc43)CC2)C1)C(O)(c1ccccc1)C1CCCC1 (single isomer, unassigned) [Isomer 2 of Compound 4]	1.77	
O=C(OC1CC2(CCN(CCCn3nnc4cc(CNC[C@H](O)c5ccc(O)c6[nH]c(=O)ccc56)ccc43)CC2)C1)C(O)(c1cccs1)C1CCCC1 (single isomer, unassigned) [Isomer 1 of Compound 9, ditrifluoroacetic acid]	2.47	
O=C(OC1CC2(CCN(CCCn3nnc4cc(CNC[C@H](O)c5ccc(O)c6[nH]c(=O)ccc56)ccc43)CC2)C1)C(O)(c1cccs1)c1cccs1 [Compound 1, [7-[3-[5-[[[(2R)-2-hydroxy-2-(8-hydroxy-2-oxo-1H-quinolin-5-yl)ethyl]amino]methyl]benzotriazol-1-yl]propyl]-7-azaspiro[3.5]nonan-2-yl] 2-hydroxy-2,2-bis(2-thienyl)acetate]	0.43	4.45
O=C(OC1CC2(CCN(CCCn3nnc4cc(CNC[C@H](O)c5ccc(O)c6[nH]c(=O)sc56)ccc43)CC2)C1)C(O)(c1cccs1)c1cccs1 [Compound 12, [7-[3-[5-[[[(2R)-2-hydroxy-2-(4-hydroxy-2-oxo-3H-1,3-benzothiazol-7-yl)ethyl]amino]methyl]benzotriazol-1-yl]propyl]-7-azaspiro[3.5]nonan-2-yl] 2-hydroxy-2,2-bis(2-thienyl)acetate; ditrifluoroacetic acid]	0.52	0.47
O=C1COc2c([C@@H](O)CNCc3ccc4c(c3)nnn4CCCN3CCC4(CC3)CC(OC(=O)C(O)(c3cccs3)c3cccs3)C4)ccc(O)c2N1 [Compound 2, [7-[3-[5-[[[(2R)-2-hydroxy-2-(5-hydroxy-3-oxo-4H-1,4-benzoxazin-8-yl)ethyl]amino]methyl]benzotriazol-1-yl]propyl]-7-azaspiro[3.5]nonan-2-yl] 2-hydroxy-2,2-bis(2-thienyl)acetate; ditrifluoroacetic acid]	0.59	1.3
O=C(OC1CC2(CCN(CCCn3nnc4cc(CNC[C@H](O)c5ccc(O)c(CO)c5)ccc43)CC2)C1)C(O)(c1cccs1)c1cccs1 [Compound 13, [7-[3-[5-[[[(2R)-2-hydroxy-2-[4-hydroxy-3-(hydroxymethyl)phenyl]ethyl]amino]methyl]benzotriazol-1-yl]propyl]-7-azaspiro[3.5]nonan-2-yl] 2-hydroxy-2,2-bis(2-thienyl)acetate; ditrifluoroacetic acid]	0.31	
O=C(OC1CC2(CCN(CCCn3c(=O)sc4cc(CNC[C@H](O)c5ccc(O)c6[nH]c(=O)ccc56)ccc43)CC2)C1)C(O)(c1cccs1)c1cccs1 [Compound 7, [7-[3-[6-[[[(2R)-2-hydroxy-2-(8-hydroxy-2-oxo-1H-quinolin-5-yl)ethyl]amino]methyl]-2-oxo-1,3-benzothiazol-3-yl]propyl]-7-azaspiro[3.5]nonan-2-yl] 2-hydroxy-2,2-bis(2-thienyl)acetate; ditrifluoroacetic acid]	1.29	4
O=C(OC1CC2(CCN(CCCn3nnc4cc(CNC[C@H](O)c5ccc(O)c6[nH]c(=O)ccc56)ccc43)CC2)C1)C(O)(c1ccccc1)C1CCCC1 (single isomer, unassigned) [Isomer 1 of Compound 4]	2.36	
O=CNc1cc([C@@H](O)CNCc2ccc3c(c2)nnn3CCCN2CCC3(CC2)CC(OC(=O)C(O)(c2cccs2)c2cccs2)C3)ccc1O [Compound 3, [7-[3-[5-[[[(2R)-2-(3-formamido-4-hydroxy-phenyl)-2-hydroxy-ethyl]amino]methyl]benzotriazol-1-yl]propyl]-7-azaspiro[3.5]nonan-2-yl] 2-hydroxy-2,2-bis(2-thienyl)acetate; ditrifluoroacetic acid]	0.22	
O=C(OC1CC2(CCN(CCCn3nnc4cc(CNC[C@H](O)c5ccc(O)c6[nH]c(=O)ccc56)ccc43)CC2)C1)C(O)(c1cccs1)C1CCCC1 (single isomer, unassigned) [Isomer 2 of Compound 9, ditrifluoroacetic acid]	2.76	
CN(CCCn1nnc2cc(CNC[C@H](O)c3ccc(O)c4[nH]c(=O)ccc34)ccc21)C(=O)CCN1CCC2(CC1)CC(OC(=O)C(O)(c1cccs1)c1cccs1)C2 [Compound 11, [7-[3-[3-[5-[[[(2R)-2-hydroxy-2-(8-hydroxy-2-oxo-1H-quinolin-5-yl)ethyl]amino]methyl]benzotriazol-1-yl]propyl-methyl-amino]-3-oxo-propyl]-7-azaspiro[3.5]nonan-2-yl] 2-hydroxy-2,2-bis(2-thienyl)acetate; ditrifluoroacetic acid]	0.46	
O=C(OC1CC2(CCN(CCCn3nnc4cc(CNC[C@H](O)c5ccc(O)c6[nH]c(=O)ccc56)ccc43)CC2)C1)C(O)(c1ccccc1)C1CCCC1 (stereo partly drawn) [Compound 4, [7-[3-[5-[[[(2R)-2-hydroxy-2-(8-hydroxy-2-oxo-1H-quinolin-5-yl)ethyl]amino]methyl]benzotriazol-1-yl]propyl]-7-azaspiro[3.5]nonan-2-yl] 2-cyclopentyl-2-hydroxy-2-phenyl-acetate; ditrifluoroacetic acid]	2.46	
